{
  "source": "patent US20260098034A1",
  "about": "“2H-BENZOTRIAZOLE DERIVATIVE, PREPARATION METHOD THEREFOR, AND PHARMACEUTICAL COMPOSITION CONTAINING SAME” (ORXES THERAPEUTICS CO., LTD., priority 2022, published 2026)",
  "key": {"Wistar rats": {"tested_on": "Wistar rats", "test": "PCA-induced Wistar rat premature ejaculation model", "type": "in vivo", "protocol": "Male Wistar rats with a weight of about 300 g were adapted for one week before the experiment was started. On the day of the experiment, the animals were anesthetized with a combination of 20 mg/kg of Zoletil 50 via i.p. and 8 mg/kg of xylazine via i.p., and the body temperature was maintained at 37° C. with a thermal insulation blanket. Exposed common carotid artery was intubated with PE50 to monitor real-time arterial pressure (i.e. systolic pressure, diastolic pressure, and mean arterial pressure). The seminal vesicles and cavernosal muscles of the animals were exposed. The stable baselines of the pressure of the seminal vesicle and the cavernosal myoelectricity were recorded for 10 min. Then the drug was administered through the tail vein for the dapoxetine group, and the tested compound was orally administered for the tested compound group (for the PE model group, the drug was replaced with a solvent). After 1 min, for inducing PE modeling, 5 mg/kg of PCA was injected intraperitoneally, and then the seminal vesicle pressure curve and the change of bulbospongiosus EMG were continuously recorded for 30 min.\n• A. Within 30 min, the actual number of ejaculations of the animals and the latency period of the first ejaculation; • B. Within 30 min, the number of the seminal vesicle contractions, the latency period of the first contraction, the basal pressure and the peak pressure.\nThe experimental data were expressed by means±S.E.M., and statistical analysis was performed by GraphPad Prism 7.0 software. Single factor variance analysis (One-way ANOVA) was used for comparison between multiple groups, and Dunnett't-test was used for statistical analysis in Post hoc test. Student's t-test was used for comparison between two groups. P<0.05 was considered as a significant difference."}, "[1]": {"conditions": "1 to 2 hours before sexual intercourse, cited from earlier work"}, "[2]": {"conditions": "Dapoxetine 2 mg/kg i.v. + PCA 5 mg/kg i.p., within 30 min after PCA induction, individual rats, hydrochloride"}, "[3]": {"conditions": "dapoxetine, medium or high dose of A001 to A006"}},
  "note": "Several values for one entry are separate records, joined by “and”; a condition that tells them apart may be missing. Equal values may be shown once. Where a name gives a salt, the structure may show the parent alone. Read-outs that look alike come from different tables or passages of the source.",
  "data": [
    {"smiles": "CN(C)[C@@H](CCOc1cccc2ccccc12)c1ccccc1", "note": "[Dapoxetine, Dapoxetine hydrochloride, reference compound]", "values": [
      {"measurement": "Actual number of ejaculations", "setting": "Wistar rats; [2]", "result": "1 (2×) and 0 (2×) and 2"},
      {"measurement": "Number of the seminal vesicle contractions", "setting": "Wistar rats; [2]", "result": "1 (3×) and 0 and 3"},
      {"measurement": "Seminal vesicle basal pressure", "setting": "Wistar rats; [2]", "result": "5.16 mmHg and 4.97 mmHg and 5.37 mmHg and 5.88 mmHg and 4.96 mmHg"},
      {"measurement": "Seminal vesicle peak pressure", "setting": "Wistar rats; [2]", "result": "6.89 mmHg and 8.1 mmHg and 6.46 mmHg and 6.78 mmHg and 7.03 mmHg"},
      {"measurement": "The first contraction latency period", "setting": "Wistar rats; [2]", "result": "1448 s and 1705 s and 1800 s and 1749 s and 866 s"},
      {"measurement": "The first ejaculation latency period", "setting": "Wistar rats; [2]", "result": "1558 s and 1800 s (2×) and 1256 s and 967 s"},
      {"measurement": "latency period of initial seminal vesicle contraction compared with the PE model group", "setting": "Wistar rats; dapoxetine group (2 mg/kg i.v.), FIG. 4", "result": "significant increase"},
      {"measurement": "ejaculation latency period (conclusion)", "setting": "Wistar rats; [3]", "result": "effectively prolong"},
      {"measurement": "number of ejaculations (conclusion)", "setting": "Wistar rats; [3]", "result": "greatly reduce"},
      {"measurement": "increase of IELT", "setting": "[1]; 30 mg", "result": 2.5, "unit": "times"},
      {"measurement": "increase of IELT", "setting": "[1]; 60 mg", "result": 3.0, "unit": "times"}
    ]}
  ]
}
